In patent US20140023650A1, “Methods of Treating and/or Preventing Cell Proliferation Disorders with IL-17 Antagonists” (INSTITUT MEDICAL DE LA SANTE ET DE LA RECHERCHE MEDICALE, priority 2010, published 2014):

Tests used:
SLE patients = settings: cited from earlier work
MCF10A [1] = experiment: Transwell migration and Matrigel invasion assays, MCF10A; type: cell-based, human; settings: for increase in cell invasion / increase in cell migration: TNFα 100 ng/mL or TGFβ 8 ng/mL, 9 days
Method: (§1) FIG. 16: IL-17 induces Epithelial to Mesenchymal Transition (EMT) via Twist-1 upregulation in mammary epithelial cells which increases cell migration, invasion and stemness. Human immortalized mammary epithelial cells (MCF10A) cells were untreated (NT) or treated with TNFα (100 ng/mL), TGF (8 ng/mL) or IL-17 (10 ng/mL) for 9 days. (A) MCF10A cells were first transduced using shRNA lentiviral constructs targeting the LUCIFERASE gene (shCt), AICDA gene (shAICDA) or TWIST1 gene (shTWIST1) mRNA and then treated with cytokines as indicated above. IL-17 (but no TNFα or TGFβ) induces EMT in ShCt and ShAICDA MCF10A characterized by loss of epithelial marker E-Cadherin (which, in color, fluoresces in green) and gain of mesenchymal marker Vimentin (which, in color, fluoresces in red) as assessed by immunofluorescence. […] (B) IL-17 (but no TNFα or TGFβ) induces EMT characterized by loss of epithelial markers E-Cadherin, α-Catenin and Occludin and gain of mesenchymal markers N-Cadherin and Vimentin as assessed by immunobloting. Actin was used as a loading control. (C) IL-17 enhances migratory (black bars) and invasive (white bars) abilities of MCF10A cells as assessed in Boyden chamber assays. (D-1 to D-3) IL-17 increases the number of CD24^low CD44^high stem cells in MCF10A cells. Flow cytometry assay showing CD24 and CD44 expression in untreated (NT) and IL-17-treated MCF10A cells (IL-17). Decreased CD24 and increased CD44 expression is indicative of normal stem cells. Red box indicates the stem cell population.
For transwell migration assay, 5·10^4 cells were plated in the top chamber with the non-coated membrane (24-well insert; pore size, […]; BD Biosciences). For invasion assay, 5·10^4 cells were plated in the top chamber with Matrigel-coated membrane (24-well insert; pore size, […]; BD Biosciences). In both assays, cells were plated in 1% serum medium, and 10% serum medium was used as a chemo-attractant in the lower chamber. The cells were incubated for 24 h. Cells that reached the lower chamber were stained with Giemsa and counted. Total number of migrating/invading cell was calculated by analyzing 5 fields per well in two independent experiments, that is 10 fields per condition.

[2] = tested on: patients with Rheumatoid Arthritis; settings: cited from earlier work
B cell clones = experiment: Cell viability of B cell clones (propidium iodide uptake, flow cytometry); type: cell-based, human; settings: doxorubicin 300 nM, 96 h, no antibodies
Method: FIG. 4: Autocrine production of IL-17 and BAFF protects B cell clones from doxorubicin-mediated cell death. (A) B cell clones secrete IL-17 and BAFF. B104 human B lymphoma cells and B cell clones DN1#1, DN1#2, DN1#3, DN1#4, DN2#5 and DN2#6 (see FIG. 3, above) were seeded at 10^5 cell/mL in medium alone and maintained in culture for 5 days. At day 5, IL-17 and BAFF concentration in cell culture supernatants was determined by ELISA. (B-1 to B-6) IL-17 and BAFF neutralizing antibodies induce B cell clone apoptosis and increase doxorubicin-induced apoptosis. […] Viability was assessed by propridium iodide uptake and flow cytometry analysis. […] B104 human B lymphoma cell line, either non-treated (NT) or pre-treated for 24 h in the presence of CpG2006 (CpG, 2.5 μg/mL) or IL-17 (1 ng/mL) and BAFF (100 ng/mL) as indicated, as well as clones DN1#1, DN1#2, DN1#3, DN1#4, DN2#5 and DN2#6 were treated or not with doxorubicin (300 nM) for 6 h and then p53, p21 and actin protein expression was assessed by immunoblotting. […]
FIG. 8: Neutralizing antibodies to IL-17, BAFF, IL-6, and IL-10 induce apoptosis and sensitize B cell clones to chemotherapy (doxorubicin). […] Viability was assessed by propridium iodide uptake and flow cytometry analysis.
Cell viability was assessed by propidium iodide (Sigma) uptake. Data were acquired on a FACSCalibur (BD Biosciences) and were analyzed with Flowio software (TreeStar).

MCF7 = experiment: CD24/CD44 flow cytometry (cancer stem cells), MCF7; type: cell-based, human; settings: MCF7 upon IL-17 exposure; ~0% untreated (FIG. 17C)
Method: (§2) FIG. 17: IL-17 induces Epithelial to Mesenchymal Transition (EMT) in well differentiated and non-metastatic MCF7 breast cancer cells which increases MCF7 cancer cell migration, invasion and sternness. MCF7 cells were untreated (NT) or treated TGFβ (8 ng/mL) or IL-17 (10 ng/mL) for 9 days. (A) IL-17 (but not TGFβ) induces EMT characterized by loss of epithelial marker E-Cadherin (which, in color, fluoresces in green) and gain of mesenchymal marker Vimentin (which, in color, fluoresces in red) as assessed by immunofluorescence. (B) IL-17 enhances migratory (black bars) and invasive (white bars) abilities of MCF7 cancer cells as assessed in Boyden chamber assays. (C-1 to C-3) IL-17 increases the number of CD24^low CD44^high stem cells in MCF7 cancer cells. Flow cytometry assay showing CD24 and CD44 expression in untreated (NT) and IL-17-treated MCF7 cells (IL-17). Decreased CD24 and increased CD44 expression is indicative of cancer stem cells. Red box indicates the cancer stem cell population.
Expression of human IL-17R (FAB177P, R&D system), CD24 (BD Pharmingen) and CD44 (BD Pharmingen) was determined by flow cytometry on a FACSCalibur flow cytometer (BD Biosciences) and analyzed using FlowJo software (Tree star). The antibodies were used at 1/25, 1/100 and 1/100 respectively.

MCF10A [3] = experiment: CD24/CD44 flow cytometry (stem cells), MCF10A; type: cell-based, human; settings: MCF10A upon IL-17 exposure; ~16% untreated (FIG. 16D)
Method: as §1, with “Actin was used as a loading control.” left out, “(D-1 to D-3) IL-17 increases the number of CD24^low CD44^high stem cells in MCF10A cells. Flow cytometry assay showing CD24 and CD44 expression in untreated (NT) and IL-17-treated MCF10A cells (IL-17). Decreased CD24 and increased CD44 expression is indicative of normal stem cells. Red box indicates the stem cell population.” left out
Expression of human IL-17R (FAB177P, R&D system), CD24 (BD Pharmingen) and CD44 (BD Pharmingen) was determined by flow cytometry on a FACSCalibur flow cytometer (BD Biosciences) and analyzed using FlowJo software (Tree star). […]

MCF7 breast cancer cells = experiment: Boyden chamber migration and invasion assays, MCF7; type: cell-based, human; settings: MCF7, IL-17 10 ng/mL, stimulated (FIG. 17B)
Source text: as §2, with “MCF7 cells were untreated (NT) or treated TGFβ (8 ng/mL) or IL-17 (10 ng/mL) for 9 days.” left out
For transwell migration assay, 5·10^4 cells were plated in the top chamber with the non-coated membrane (24-well insert; pore size, […]; BD Biosciences). […] Cells that reached the lower chamber were stained with Giemsa and counted. Total number of migrating/invading cell was calculated by analyzing 5 fields per well in two independent experiments, that is 10 fields per condition.

Belimumab: humanized anti-BAFF antibody
biological activity in SLE patients (SLE patients): biologically active | tolerability in SLE patients (SLE patients): well tolerated

TGFβ: recombinant TGFβ (PeproTech, 100-21)
increase in cell invasion (MCF10A [1]): weak | increase in cell migration (MCF10A [1]): weak

TNFα
increase in cell invasion (MCF10A [1]): no | increase in cell migration (MCF10A [1]): no

AIN 457: human anti-IL-17 monoclonal antibody (Novartis)
patients in whom treatment was effective ([2]; Rheumatoid Arthritis, 27% of patients who received placebo): 46% | safety / tolerability in RA patients ([2]; patients with RA): safe

COc1cccc2c1C(=O)c1c(O)c3c(c(O)c1C2=O)C[C@@](O)(C(=O)CO)C[C@@H]3O[C@H]1C[C@H](N)[C@H](O)[C@H](C)O1 [doxorubicin]
doxorubicin-induced apoptosis of B cell clones (B cell clones): remarkably resistant

LY2439821: humanized monoclonal antibody against IL-17A (Eli Lilly)
efficacy compared to placebo ([2]; intravenous, certain doses, RA patients): statistically significantly more effective

IL-17: recombinant IL-17 (PeproTech, ref 200-17)
percentage of CD24lowCD44high cancer stem cells (MCF7): 67% | percentage of CD24low/CD44high stem cells (MCF10A [3]): 71% | increase in ability to migrate in transwell migration assay (MCF10A [1]; IL-17 10 ng/mL, 9 days (FIG. 16C, black bars)): ~16 fold | increase in invasive ability in Matrigel invasion assay (MCF10A [1]; IL-17 10 ng/mL, 9 days (FIG. 16C, white bars)): ~10 fold | increase in invasive ability (MCF7 breast cancer cells): ~10 fold | increase in migratory ability (MCF7 breast cancer cells): ~8 fold
